Assay results taken from patent US20140057837A1, “METHODS AND COMPOSITIONS FOR THE "BROWNING" OF WHITE FAT” (priority 2012, published 2014).
“Also recorded” adds a separate entry of the source.

What was measured:
[1] = tested on: retroperitoneal white adipose tissue; assay: Norepinephrine stimulation in vivo: gene expression in white fat; design: species or system mice; conditions: NE 0.3 mg/kg s.c., 4 hours after injection, 30° C.
Procedure: Norepinephrine Stimulation In Vivo.
To measure the norepinephrine-induced gene expression changes in white fat, the mice after 6 weeks enrichment or control housing were anesthetized with pentobarbital (90 mg/kg, i.p.) and injected with 0.3 mg/kg norepinephrine (s.c.). The mice were maintained at 30° C. throughout the experiment. Fat pads were dissected 4 h after norepinephrine injection. qRT-PCR was used to profile gene expression in white fat.

white adipose tissue = assay: Propranolol experiment: EE-induced gene program in white adipose tissue (qRT-PCR); assay type: in vivo, C57BL/6 mice; conditions: propranolol in drinking water (0.5 g/L), EE or control housing for 5 weeks
Source text: We randomly assigned 40 C57BL/6 mice, 3 weeks of age, to live in enriched or control cages supplied with propranolol in drinking water (0.5 g/L). We collected blood 3 weeks after enrichment and dissected fat pads after 5 weeks enrichment.

Structure (SMILES) | Lep expression in EE retroperitoneal white adipose tissue ([1]; EE mice) | Ucp1 expression in EE retroperitoneal white adipose tissue ([1]; EE mice) | gene expression changes in control retroperitoneal white adipose tissue ([1]; control-housed mice) | EE-associated molecular features of white adipose tissue (white adipose tissue)
NC[C@H](O)c1ccc(O)c(O)c1 [NE, norepinephrine] | further reduced significantly | highly increased | failed to induce significant changes | –
CC(C)NCC(O)COc1cccc2ccccc12 (stereo not shown) [Propranolol, propranolol] | – | – | – | efficiently blocked the molecular features associated with EE; also recorded: blocked enrichment-associated molecular features of white adipose tissue
